Holding throughout (assay type): in vivo
Assay [1] concerns Zucker Diabetic Fatty (ZDF) rats. Briefly: Plasma insulin in the Zucker rat model of diet induced diabetes, 21 days of treatment. The text has this:
(§1) Study Design: • Zucker rat model of diet induced diabetes (Zucker Diabetic Fatty Rats) • Parallel randomized study • 10 animals in each of 4 treatment groups • 21 days of treatment
(§2) Main Study Outcomes: • Glucose (measured at multiple time points before and during treatment) • HbA1c (before and at the end of the treatment period) • Insulin (before and at the end of the treatment period) • Creatinine (before and at the end of the treatment period)
(§3) Ten Zucker Diabetic Fatty (ZDF) rats were randomly allocated to each of the four different treatment groups (Table 6). Whole blood glucose measurements were made from 4 days before dosing, then daily until for 8 days, then at reduced frequency. Measurements of HbA1c and creatinine were made the day prior to dosing, then at days 9 and 21. Insulin measurements were made the day prior to dosing then on day 20. A clinical chemistry sample from one animal in the vehicle group on day 9 was not available so there is a missing measurement for creatinine and HbA1c on that day
For Insulin, a baseline measure and a measurement at day 20 was available, so the ANCOVA approach (linear regression with the baseline value as a covariate) was used to test for differences in this measurement between treatments. The interaction between baseline value and treatment was tested but there was no evidence of an interaction, therefore the main effects were retained.
(§4) To test for robustness of the linear mixed model and ANCOVA models a bootstrapped 95% CI (percentile method) for the weighted marginal mean of measurements across the entire study period or single outcome measurement using 2000 replicates was estimated. The bootstrap sampling was done on individual animal (using complete measurements), with stratification by treatment type.

The test system is the same in assay [2]. Briefly: Whole blood glucose in the Zucker rat model of diet induced diabetes, 21 days of treatment.
Excerpt: as §1, §2, §3
(§5) Whole blood glucose, HbA1c and Creatinine were each analyzed using a linear mixed mode (proc mixed in SAS/STAT 14.2). For WBC, unstructured, autoregressive, exchangeable and Toeplitz correlation structures for repeated measurements across the study were compared using Akaike Information Criterion and Bayesian Information Criterion. The Toeplitz correlation structure was selected as the best fitting structure. For HbA1c and Creatinine an exchangeable structure was used as there were only two measurements. Denominator degrees of freedom were calculated using the between-within subject method. The model included coefficients for baseline measurement (the closest measurement preceding dosing), type of drug treatment, time and an interaction between drug treatment and time. Marginal means (with 95% confidence intervals) for the measurement at each period for each drug were estimated, and an overall marginal mean (with 95% confidence interval) for measurements across time was estimated using weights that reflect the differing amounts of time in each measurement period (assuming each measurement represented all time since the preceding measurement). A likelihood ratio test of overall differences between treatment was initially used, if significant (p<0.05) then we tested for differences between each combination of treatments.
as §4

Assay [3] has the same test system. Briefly: HbA1c in the Zucker rat model of diet induced diabetes, 21 days of treatment.
Excerpt: as §1, §2, §3, §5, §4

Assay [4] has the same test system. Briefly: Serum creatinine in the Zucker rat model of diet induced diabetes, 21 days of treatment.
Excerpt: as §1, §2, §3, §5, §4

Where [5] appears, read: whole study period, bootstrapped 95% CI, 2000 replicates.

Entries after “also recorded” stand apart in the source; their conditions may differ.

Turning to `CN(C)C(=N)N=C(N)N` [Composition 1K-MET, Metformin], the “Insulin levels relative to the control group / vehicle” value in assay [1] (day 20) was “no evidence of a difference; also recorded: essentially no difference”. The “Insulin, Overall level in WBG after dosing, Estimate (95% CI)” value in assay [1] (day 20, ANCOVA with baseline as covariate) is 3879 (2757-5001) pg/mL. In assay [1] (day 20, bootstrapped 95% CI, 2000 replicates), the “Insulin, bootstrap median and confidence interval” value is 3867 (2914-4874) pg/m. In assay [1] (day 20, difference = treatment minus vehicle), the “Insulin, pairwise comparison Vehicle vs treatment, Estimate (95% CI)” value is 932 (−660-2524) pg/mL. For the same molecule, in assay [2] (21 days of treatment), the “WBG relative to the control group” value was “essentially no difference”. Also, the “Whole blood glucose, pairwise comparison Vehicle vs treatment, Estimate (95% CI)” value in assay [2] (days 1-21, difference = treatment minus vehicle) is 24.4 (−5.2-53.9) mg/dL. In assay [2] (non-fasting whole blood glucose, time-weighted marginal mean over days 1-21 post-dosing, linear mixed model), the “Overall level in WBG after dosing, Estimate (95% CI)” value is on record as 442.7 (421.8-463.5) mg/dL. Also, the “Whole blood glucose, bootstrap median and confidence interval” value in assay [2] (setting [5]) was 443.4 (419.8-465.0) mg/dL. Further, the “HbA1c relative to the control group” value in assay [3] (21 days of treatment) is given as “essentially no difference”. For the same molecule, the “HbA1c, pairwise comparison Vehicle vs treatment, Estimate (95% CI)” value in assay [3] (days 9 and 21, difference = treatment minus vehicle) was −0.35 (−0.68-−0.01) %. Moreover, the “HbA1c, overall level after dosing, estimate (95% CI)” value in assay [3] (measurements at days 9 and 21, marginal mean, linear mixed model) is listed as 6.52 (6.29-6.75) %. Besides, the “HbA1c, bootstrap median and confidence interval” value in assay [3] (setting [5]) is reported as 6.53 (6.24-6.82) %. Also, the “Creatinine relative to the control group” value in assay [4] (21 days of treatment) is listed as “essentially no difference”. In assay [4] (serum, days 9 and 21, difference = treatment minus vehicle), the “Creatinine, pairwise comparison Vehicle vs treatment, Estimate (95% CI)” value is given as 0.01 (−0.01-0.03) mg/dL. Besides, the “Creatinine, Overall level in WBG after dosing, Estimate (95% CI)” value in assay [4] (serum, days 9 and 21, marginal mean, linear mixed model) was 0.79 (0.77-0.80) mg/dL. In assay [4] (setting [5]), the “Creatinine, bootstrap median and confidence interval” value is given as 0.79 (0.77-0.80) mg/dL.

These data come from patent US11033544B2, “Low-dose triple combination formulation” (THE GEORGE INSTITUTE FOR GLOBAL HEALTH, priority 2019, dated 2021).
